The values that follow come from patent US20140303229A1, “NOVEL SKIN MOISTURIZING COMPOSITIONS” (priority 2007, published 2014).

This data set has as its system skin. Put plainly: 14-day cumulative irritation potential study (predictive occlusive patch test). An excerpt: Occlusive patches with 100 micro liters of test product were applied to the skin daily for 14 days. Patches with sodium lauryl sulfate, 1.0% was used as a positive control while white petrolatum was used as a negative control.

With `CCCCCCCCCCCCOS(=O)(=O)[O-].[Na+]` [Sodium lauryl sulfate, 1.0%, Sodium lauryl sulfate], the “Classification (irritation classification according to Berger and Bowman)” value by setting is: (based on standardized cumulative irritation scores, 14 days, listed as Sodium lauryl sulfate 1.0%, sulfate) “possibly mild”; (based on standardized cumulative irritation scores, 14 days, sulfate) “Possibly mild in”. In addition, the “Standardized Cumulative Score (cumulative irritation score)” value (occlusive patches, 100 micro liters, daily for 14 days) was 595.4.
White Petrolatum: under “in vivo”, the “Category (irritation classification of Berger and Bowman)” value was “I”; the “Classification (irritation classification according to Berger and Bowman)” value is reported as “Mild material -”.
